Laboratory results: patent US10821115B2, “Compounds that inhibit Mcl-1 protein” (priority 2017, dated 2020)
Like-named read-outs stand apart in the source and are kept apart here.

Legend:
[1] = tested on: human multiple myeloma cell line, OPM-2; assay: Cell viability assay (OPM-2 10 FBS), CellTiter-Glo; format: cell-based
Outline: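 Steps: plate cells at 3000/well in 10% FBS growth medium, add serially diluted compound, incubate 16 h at 37 °C with 5% CO2, add detection reagent and read luminescence after 25 min. A 4-parameter logistic model gives IC50.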

[2] = molecular target: recombinant human Mcl-1 (residues 171-327) / Bim interaction (Homo sapiens (Human), UniProt Q07820); assay: biochemical; format: binding; conditions: read-out: Mcl-1 HTRF IC50
[3] = Homo sapiens, OPM-2, 16 h, read-out: OPM-2 10% FBS IC50 IP, OPM-2 cells, 10% FBS, 16 h, CellTiter-Glo
[4] = TR-FRET, Mcl-1(171-327) / biotin-Bim (51-76)

recombinant human Mcl-1 (residues 171-327) / Bim interaction, sequence (Q07820 171-327): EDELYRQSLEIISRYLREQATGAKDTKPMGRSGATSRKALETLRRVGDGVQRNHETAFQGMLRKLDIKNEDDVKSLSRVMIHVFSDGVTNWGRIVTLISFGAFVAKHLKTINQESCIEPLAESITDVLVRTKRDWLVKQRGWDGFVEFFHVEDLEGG

SMILES | IC50 [1, 3] | IC50 [2, 4] | IC50 [2] | IC50 ([1]; read-out: OPM-2 10% FBS IC50 IP, OPM-2 cells, 10% FBS, 16 h, CellTiter-Glo)
CC[C@@]1(O)CCC[C@H](C)[C@@H](C)S(=O)(=O)NC(=O)c2ccc3c(c2)N(C[C@@H]2CC[C@H]21)C[C@@]1(CCCc2cc(Cl)ccc21)CO3 [Example 100079, (1S,3′R,6′R,7′R,11′S,12′R)-6-chloro-7′-ethyl-7′-hydroxy-11′,12′-dimethyl-3,4-dihydro-2H,15′H-spiro[naphthalene-1,22′-[20]oxa[13]thia[1,14]diazatetracyclo [14.7.2.0~3,6~.0~19,24~]pentacosa[16,18,24]trien]-15′-one 13′,13′-dioxide] | 713 nM | 0.343 nM | – | –
CCN(CC)C(=O)C[C@]1(O)/C=C/C[C@H](C)[C@@H](C)S(=O)(=O)NC(=O)c2ccc3c(c2)N(C[C@@H]2CC[C@H]21)C[C@@]1(CCCc2cc(Cl)ccc21)CO3 [Example 100083, 2-((1S,3′R,6′R,7′S,8′E,11′S,12′R)-6-chloro-7′-hydroxy-11′,12′-dimethyl-13′,13′-dioxido-15′-oxo-3,4-dihydro-2H-spiro[naphthalene-1,22′-[20]oxa[13]thia[1,14]diazatetracyclo [14.7.2.0~3,6~.0~19,24~]pentacosa[8,16,18,24]tetraen]-7′-yl)-N,N-diethylacetamide] | 123 nM | 0.179 nM | – | –
C[C@@H]1[C@@H](C)C/C=C/[C@@](O)(CC(=O)N2CCOCC2)[C@@H]2CC[C@H]2CN2C[C@@]3(CCCc4cc(Cl)ccc43)COc3ccc(cc32)C(=O)NS1(=O)=O [Example 100085, (1S,3′R,6′R,7′S,8′E,11′S,12′R)-6-chloro-7′-hydroxy-11′,12′-dimethyl-7′-(2-(4-morpholinyl)-2-oxoethyl)-3,4-dihydro-2H,15′H-spiro[naphthalene-1,22′-[20]oxa[13]thia[1,14]diazatetracyclo [14.7.2.0~3,6~.0~19,24~]pentacosa[8,16,18,24]tetraen]-15′-one 13′,13′-dioxide] | 288 nM | – | 0.245 nM | –
C[C@@H]1[C@@H](C)CCC[C@@](O)(CC(=O)N2CCOCC2)[C@@H]2CC[C@H]2CN2C[C@@]3(CCCc4cc(Cl)ccc43)COc3ccc(cc32)C(=O)NS1(=O)=O [Example 100086, (1S,3′R,6′R,7′R,11′S,12′R)-6-chloro-7′-hydroxy-11′,12′-dimethyl-7′-(2-(4-morpholinyl)-2-oxoethyl)-3,4-dihydro-2H,15′H-spiro[naphthalene-1,22′-[20]oxa[13]thia[1,14]diazatetracyclo [14.7.2.0~3,6~.0~19,24~]pentacosa[16,18,24]trien]-15′-one 13′,13′-dioxide] | 390 nM | 0.537 nM | – | –
C[C@@H]1[C@@H](C)CCC[C@](O)(CCN(C)C)[C@@H]2CC[C@H]2CN2C[C@@]3(CCCc4cc(Cl)ccc43)COc3ccc(cc32)C(=O)NS1(=O)=O [Example 100088, (1S,3′R,6′R,7′S,11′S,12′R)-6-chloro-7′-(2-(dimethylamino)ethyl)-7′-hydroxy-11′,12′-dimethyl-3,4-dihydro-2H,15′H-spiro[naphthalene-1,22′-[20]oxa[13]thia[1,14]diazatetracyclo [14.7.2.0~3,6~.0~19,24~]pentacosa[16,18,24]trien]-15′-one 13′,13′-dioxide] | 1340 nM | 2.12 nM | – | –
C[C@@H]1[C@@H](C)CCC[C@@](O)(CC(=O)N2CCCCC2)[C@@H]2CC[C@H]2CN2C[C@@]3(CCCc4cc(Cl)ccc43)COc3ccc(cc32)C(=O)NS1(=O)=O [Example 100089, (1S,3′R,6′R,7′R,11′S,12′R)-6-chloro-7′-hydroxy-11′,12′-dimethyl-7′-(2-oxo-2-(1-piperidinyl)ethyl)-3,4-dihydro-2H,15′H-spiro[naphthalene-1,22′-[20]oxa[13]thia[1,14]diazatetracyclo [14.7.2.0~3,6~.0~19,24~]pentacosa[16,18,24]trien]-15′-one 13′,13′-dioxide] | – | 0.348 nM | – | 325 nM
